Experimental data reported in patent publication US20250319046A1, “PHENYLALANINE-BASED LAT1 INHIBITORS AND USES THEREOF” (MAXYMUNE THERAPEUTICS, INC., priority 2024, published 2025).

These molecules were tested against LAT1 (Homo sapiens (Human), UniProt Q01650) (assay: LAT1 uptake inhibition assay: [3H]-gabapentin competition uptake in LN229 cells). Conditions: [3H]-gabapentin uptake, 15 min incubation in PBS, read-out: IC50, the concentration of test compound at which the [3H]-GP uptake was inhibited by 50%.
Type: cell-based
Method: LAT1 Uptake Inhibition Assay
The ability of compounds to interact with LAT1 was measured using a radiolabeled competition uptake assay with [^3H]-Gabapentin ([^3H]-GP) (Perkin Elmer) in 96-well plates with LN229 cells (ATCC®). Ten (10)×10^3 (10,000) cells/well were plated in white, clear bottom plates and were allowed to grow for three (3) days. On the fourth day, the cells were washed and then incubated with 50,000 counts per minute (cpm) of [^3H]-GP in phosphate buffered saline (PBS) (VWR International) with increasing concentrations of test compounds in at least triplicate for 15 min. At end of the assay time, the incubation solution was removed, and plates were washed three times (3×) with 100 μL of ice-cold PBS buffer. One-hundred fifty (150) […] of scintillation fluid (VWR International) was added to each well, and the radioactivity retained within the cells was measured on a 96-well scintillation counter. Background uptake ([^3H]-GP uptake in the presence of 10 mM non-radiolabeled gabapentin (GP)) (MedKoo) was subtracted and data were normalized to the DMSO control ([^3H]-GP uptake in the absence of any competitor). Data were fitted to the Michaelis-Menten equation using GraphPad Prism (Version 8.2.0).

Sequence of LAT1 (Q01650 whole entry): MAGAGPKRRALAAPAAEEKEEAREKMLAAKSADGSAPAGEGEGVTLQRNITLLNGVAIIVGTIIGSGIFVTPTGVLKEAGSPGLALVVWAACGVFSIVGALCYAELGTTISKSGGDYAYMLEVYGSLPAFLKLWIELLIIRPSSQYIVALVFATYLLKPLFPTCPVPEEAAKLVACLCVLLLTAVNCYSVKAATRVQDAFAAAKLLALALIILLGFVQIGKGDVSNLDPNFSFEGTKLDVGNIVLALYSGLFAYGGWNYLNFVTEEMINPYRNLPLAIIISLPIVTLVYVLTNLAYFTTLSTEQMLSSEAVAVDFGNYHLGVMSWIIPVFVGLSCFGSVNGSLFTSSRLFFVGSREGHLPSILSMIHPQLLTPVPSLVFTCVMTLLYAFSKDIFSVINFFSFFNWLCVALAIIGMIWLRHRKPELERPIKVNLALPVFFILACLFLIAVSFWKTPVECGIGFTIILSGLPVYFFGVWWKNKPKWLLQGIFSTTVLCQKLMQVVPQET
Sequence of LAT1 (P08195 whole entry partner): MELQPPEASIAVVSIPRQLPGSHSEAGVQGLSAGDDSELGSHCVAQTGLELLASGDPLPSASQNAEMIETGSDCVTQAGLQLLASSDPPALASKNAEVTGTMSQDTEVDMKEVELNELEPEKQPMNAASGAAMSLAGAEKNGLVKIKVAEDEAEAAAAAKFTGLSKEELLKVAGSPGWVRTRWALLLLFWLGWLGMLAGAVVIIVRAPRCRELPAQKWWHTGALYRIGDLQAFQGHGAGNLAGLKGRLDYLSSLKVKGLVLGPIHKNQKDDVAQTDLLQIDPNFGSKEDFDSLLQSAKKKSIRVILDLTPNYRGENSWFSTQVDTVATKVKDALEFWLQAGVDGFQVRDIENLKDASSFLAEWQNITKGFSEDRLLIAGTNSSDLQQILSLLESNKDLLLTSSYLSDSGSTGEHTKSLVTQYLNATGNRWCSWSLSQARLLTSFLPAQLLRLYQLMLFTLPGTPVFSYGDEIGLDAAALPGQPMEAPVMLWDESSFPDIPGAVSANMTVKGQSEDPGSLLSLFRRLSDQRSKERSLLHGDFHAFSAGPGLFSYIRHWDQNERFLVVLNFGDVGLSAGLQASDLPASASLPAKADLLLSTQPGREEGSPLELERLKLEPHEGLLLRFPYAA

Row | IC50 | Structure (SMILES)
1 | ≥ 10000 nM | CS(=O)(=O)Nc1ccccc1C[C@H](N)C(=O)O [Compound 1, (S)-2-Amino-3-(2-(methylsulfonamido)phenyl)propanoic Acid]
2 | 1000 to 10000 nM | CN(C)S(=O)(=O)c1cccc(C[C@H](N)C(=O)O)c1 [Compound 73, (S)-2-Amino-3-(3-(N,N-dimethylsulfamoyl)phenyl)propanoic Acid]
3 | 1000 to 10000 nM | CC(C)c1ccc(NS(=O)(=O)c2cccc3c(N(C)C)cccc23)cc1C[C@@H](N)C(=O)O [Compound 34, (R)-2-Amino-3-(5-((5-(dimethylamino)naphthalene)-1-sulfonamido)-2-isopropylphenyl)propanoic Acid]
4 | 100 to 1000 nM | Cc1ccc(NS(=O)(=O)c2ccc(-c3ccccc3)cc2)cc1C[C@H](N)C(=O)O [Compound 17, (S)-3-(5-([1,1′-Biphenyl]-4-sulfonamido)-2-methylphenyl)-2-aminopropanoic Acid]
5 | 100 to 1000 nM | Cc1ccc(NS(=O)(=O)c2cc(Cl)cc(Cl)c2)cc1C[C@H](N)C(=O)O [Compound 43, (S)-2-Amino-3-(5-((3,5-dichlorophenyl)sulfonamido)-2-methylphenyl)propanoic Acid]
6 | 1000 to 10000 nM | Cc1ccc(S(=O)(=O)Nc2cc(C[C@H](N)C(=O)O)cc(NS(=O)(=O)c3ccc(C)cc3)c2)cc1 [Compound 63, (S)-2-Amino-3-(3,5-bis((4-methylphenyl)sulfonamido)phenyl)propanoic Acid]
7 | 100 to 1000 nM | Cc1ccc(CNS(=O)(=O)c2ccccc2)cc1C[C@H](N)C(=O)O [Compound 69, (S)-2-Amino-3-(2-methyl-5-(phenylsulfonamidomethyl)phenyl)propanoic Acid]
8 | ≥ 10000 nM | Cc1ccc(NS(C)(=O)=O)cc1C[C@H](N)C(=O)O [Compound 67, (S)-2-Amino-3-(2-methyl-5-(methylsulfonamido)phenyl)propanoic Acid]
9 | 1000 to 10000 nM | Cc1ccc(NS(=O)(=O)C2CC2)cc1C[C@H](N)C(=O)O [Compound 14, (S)-2-Amino-3-(5-(cyclopropanesulfonamido)-2-methylphenyl)propanoic Acid]
10 | 1000 to 10000 nM | CC(=O)Nc1ccc(S(=O)(=O)Nc2ccc(C)c(C[C@H](N)C(=O)O)c2)c2ccccc12 [Compound 13, (S)-3-(5-((4-Acetamidonaphthalene)-1-sulfonamido)-2-methylphenyl)-2-aminopropanoic Acid]
11 | 100 to 1000 nM | Cc1ccc(S(=O)(=O)NCc2ccc(C)c(C[C@H](N)C(=O)O)c2)cc1 [Compound 66, (S)-2-Amino-3-(2-methyl-5-(((4-methylphenyl)sulfonamido)methyl)phenyl)propanoic Acid]
12 | 100 to 1000 nM | Cc1ccc(S(=O)(=O)Nc2cccc3ncccc23)cc1C[C@H](N)C(=O)O [Compound 50, (S)-2-Amino-3-(2-methyl-5-(N-(quinolin-5-yl)sulfamoyl)phenyl)propanoic Acid]
13 | ≥ 10000 nM | CS(=O)(=O)Nc1cc(C[C@H](N)C(=O)O)cc(NS(C)(=O)=O)c1 [Compound 61, (S)-2-Amino-3-(3,5-di(methylsulfonamido)phenyl)propanoic Acid]
14 | ≥ 10000 nM | CS(=O)(=O)Nc1cccc(C[C@H](N)C(=O)O)c1 [Compound 68, (S)-2-Amino-3-(3-(methylsulfonamido)phenyl)propanoic Acid]
15 | ≥ 10000 nM | N[C@@H](Cc1cc(Cl)c(NS(=O)(=O)c2ccccc2)c(Cl)c1)C(=O)O [Compound 47, (S)-2-Amino-3-(3,5-dichloro-4-(phenylsulfonamido)phenyl)propanoic Acid]
16 | 100 to 1000 nM | Cc1ccc(CS(=O)(=O)Cc2ccccc2)cc1C[C@H](N)C(=O)O [Compound 56, (S)-2-Amino-3-(5-((benzylsulfonyl)methyl)-2-methylphenyl)propanoic Acid]
17 | ≥ 10000 nM | Cc1ccc(S(=O)(=O)Nc2ccc(Cl)cc2)cc1C[C@@H](N)C(=O)O [Compound 51, (R)-2-Amino-3-(5-(N-(4-chlorophenyl)sulfamoyl)-2-methylphenyl)propanoic Acid]
